# Results published in ChEMBL document CHEMBL1201862, “PubChem BioAssay data set” (2004).
#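 Each compound was tested at five concentrations against cells in 96-well plates for 48 hours. Here, GI50 denotes the concentration required for 50% inhibition of growth.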 The source made the active and inactive calls. Cut-off read from the data, not from the text of the source: active = GI50 up to about 1.1 µM and inactive = higher.
# Key:
# Assay in all cases: growth of human tumour cells (NCI), 48 h
# SF-539 = system: SF-539
# NCI-H460 = system: NCI-H460
# UO-31 = system: UO-31
# PC-3 = system: PC-3
# TK-10 = system: TK-10
# OVCAR-5 = system: OVCAR-5
# SK-MEL-5 = system: SK-MEL-5
# HCC 2998 = system: HCC 2998
# KM12 = system: KM12
# COLO 205 = system: COLO 205
# CAKI-1 = system: CAKI-1
# RXF 393 = system: RXF 393
# Malme-3M = system: Malme-3M
# 786-0 = system: 786-0
# A549 = system: A549
# MDA-MB-231 = system: MDA-MB-231
# SK-MEL-28 = system: SK-MEL-28
# MOLT-4 = system: MOLT-4
# SN12C = system: SN12C
# MDA-N = system: MDA-N
# LOX IMVI = system: LOX IMVI
# MDA-MB-435 = system: MDA-MB-435
# SNB-75 = system: SNB-75
# SK-MEL-2 = system: SK-MEL-2
# EKVX = system: EKVX
# HCT-116 = system: HCT-116
# CCRF-CEM = system: CCRF-CEM
# IGROV-1 = system: IGROV-1
# OVCAR-4 = system: OVCAR-4
# BT-549 = system: BT-549
# NCI-H522 = system: NCI-H522
# Hs-578T = system: Hs-578T
# ACHN = system: ACHN
# SF-295 = system: SF-295
# SR = system: SR
# UACC-62 = system: UACC-62
# MCF7 = system: MCF7
# NCI-H226 = system: NCI-H226
# RPMI-8226 = system: RPMI-8226
# UACC-257 = system: UACC-257
# U-251 = system: U-251
# DU-145 = system: DU-145
# NCI/ADR-RES = system: NCI/ADR-RES
# HOP-92 = system: HOP-92
# K562 = system: K562
# OVCAR-3 = system: OVCAR-3
# A498 = system: A498
# HT-29 = system: HT-29
# M14 = system: M14
# SF-268 = system: SF-268
# SNB-19 = system: SNB-19
# NCI-H23 = system: NCI-H23
# SW-620 = system: SW-620
# HCT-15 = system: HCT-15
# OVCAR-8 = system: OVCAR-8
# HOP-62 = system: HOP-62
# SK-OV-3 = system: SK-OV-3
# T47D = system: T47D
structure (smiles),measurement,setting,value
O=C1c2cc3ncsc3cc2C(=O)c2c(O)ccc(O)c21,GI50,SF-539,> 100 µM (inactive)
same,GI50,NCI-H460,> 100 µM (inactive)
same,GI50,UO-31,> 100 µM (inactive)
same,GI50,PC-3,> 100 µM (inactive)
same,GI50,TK-10,> 100 µM (inactive)
same,GI50,OVCAR-5,> 100 µM (inactive)
same,GI50,SK-MEL-5,> 100 µM (inactive)
same,GI50,HCC 2998,> 100 µM (inactive)
same,GI50,KM12,> 100 µM (inactive)
same,GI50,COLO 205,> 100 µM (inactive)
same,GI50,CAKI-1,> 100 µM (inactive)
same,GI50,RXF 393,> 100 µM (inactive)
same,GI50,Malme-3M,> 100 µM (inactive)
same,GI50,786-0,> 100 µM (inactive)
same,GI50,A549,> 100 µM (inactive)
same,GI50,MDA-MB-231,> 100 µM (inactive)
same,GI50,SK-MEL-28,> 100 µM (inactive)
same,GI50,MOLT-4,> 100 µM (inactive)
same,GI50,SN12C,> 100 µM (inactive)
same,GI50,MDA-N,> 100 µM (inactive)
same,GI50,LOX IMVI,> 100 µM (inactive)
same,GI50,MDA-MB-435,> 100 µM (inactive)
same,GI50,SNB-75,> 100 µM (inactive)
same,GI50,SK-MEL-2,> 100 µM (inactive)
same,GI50,EKVX,> 100 µM (inactive)
same,GI50,HCT-116,> 100 µM (inactive)
same,GI50,CCRF-CEM,98.9 µM (inactive)
same,GI50,IGROV-1,> 100 µM (inactive)
same,GI50,OVCAR-4,> 100 µM (inactive)
same,GI50,BT-549,> 100 µM (inactive)
same,GI50,NCI-H522,> 100 µM (inactive)
same,GI50,Hs-578T,> 100 µM (inactive)
same,GI50,ACHN,> 100 µM (inactive)
same,GI50,SF-295,> 100 µM (inactive)
same,GI50,SR,> 100 µM (inactive)
same,GI50,UACC-62,> 100 µM (inactive)
same,GI50,MCF7,> 100 µM (inactive)
same,GI50,NCI-H226,> 100 µM (inactive)
same,GI50,RPMI-8226,> 100 µM (inactive)
same,GI50,UACC-257,> 100 µM (inactive)
same,GI50,U-251,> 100 µM (inactive)
same,GI50,DU-145,> 100 µM (inactive)
same,GI50,NCI/ADR-RES,> 100 µM (inactive)
same,GI50,HOP-92,> 100 µM (inactive)
same,GI50,K562,> 100 µM (inactive)
same,GI50,OVCAR-3,> 100 µM (inactive)
same,GI50,A498,> 100 µM (inactive)
same,GI50,HT-29,> 100 µM (inactive)
same,GI50,M14,> 100 µM (inactive)
same,GI50,SF-268,> 100 µM (inactive)
same,GI50,SNB-19,> 100 µM (inactive)
same,GI50,NCI-H23,> 100 µM (inactive)
same,GI50,SW-620,> 100 µM (inactive)
same,GI50,HCT-15,> 100 µM
same,GI50,OVCAR-8,> 100 µM (inactive)
same,GI50,HOP-62,> 100 µM (inactive)
CCCCI(O)OS(=O)(=O)c1ccc(C)cc1,GI50,SF-539,> 100 µM (inactive)
same,GI50,UO-31,23.9 µM (inactive)
same,GI50,PC-3,> 100 µM (inactive)
same,GI50,TK-10,> 100 µM (inactive)
same,GI50,OVCAR-5,> 100 µM (inactive)
same,GI50,SK-MEL-5,> 100 µM (inactive)
same,GI50,HCC 2998,> 100 µM (inactive)
same,GI50,KM12,56.8 µM (inactive)
same,GI50,COLO 205,> 100 µM (inactive)
same,GI50,CAKI-1,> 100 µM (inactive)
same,GI50,SK-OV-3,> 100 µM (inactive)
same,GI50,T47D,> 100 µM (inactive)
same,GI50,RXF 393,> 100 µM (inactive)
same,GI50,786-0,> 100 µM (inactive)
same,GI50,A549,66.2 µM (inactive)
same,GI50,MDA-MB-231,> 100 µM (inactive)
same,GI50,SK-MEL-28,> 100 µM (inactive)
same,GI50,MOLT-4,> 100 µM (inactive)
same,GI50,SN12C,> 100 µM (inactive)
same,GI50,LOX IMVI,13.9 µM (inactive)
same,GI50,MDA-MB-435,> 100 µM (inactive)
same,GI50,SNB-75,73.5 µM (inactive)
same,GI50,SK-MEL-2,> 100 µM (inactive)
same,GI50,EKVX,38 µM (inactive)
same,GI50,HCT-116,> 100 µM (inactive)
same,GI50,CCRF-CEM,53.5 µM (inactive)
same,GI50,IGROV-1,28.2 µM (inactive)
same,GI50,OVCAR-4,> 100 µM (inactive)
same,GI50,BT-549,> 100 µM (inactive)
same,GI50,NCI-H522,22.5 µM (inactive)
same,GI50,Hs-578T,> 100 µM (inactive)
same,GI50,ACHN,> 100 µM (inactive)
same,GI50,SF-295,> 100 µM (inactive)
same,GI50,SR,55.3 µM (inactive)
same,GI50,UACC-62,89.1 µM (inactive)
same,GI50,MCF7,> 100 µM (inactive)
same,GI50,NCI-H226,> 100 µM (inactive)
same,GI50,RPMI-8226,50.6 µM (inactive)
same,GI50,UACC-257,> 100 µM (inactive)
same,GI50,U-251,> 100 µM (inactive)
same,GI50,DU-145,> 100 µM (inactive)
same,GI50,NCI/ADR-RES,29.6 µM (inactive)
same,GI50,HOP-92,> 100 µM (inactive)
same,GI50,K562,67.8 µM (inactive)
same,GI50,OVCAR-3,> 100 µM (inactive)
same,GI50,A498,> 100 µM (inactive)
same,GI50,HT-29,> 100 µM (inactive)
same,GI50,M14,> 100 µM (inactive)
same,GI50,SF-268,> 100 µM (inactive)
same,GI50,SNB-19,> 100 µM (inactive)
same,GI50,NCI-H23,> 100 µM (inactive)
same,GI50,SW-620,> 100 µM (inactive)
same,GI50,HCT-15,> 100 µM
same,GI50,OVCAR-8,> 100 µM (inactive)
same,GI50,HOP-62,> 100 µM (inactive)
